In ChEMBL document CHEMBL1156829 (Proc Natl Acad Sci U S A, 2008):

How the values were obtained:
Plasmodium falciparum [1] = assay: NOVARTIS: Inhibition of Plasmodium falciparum 3D7 (drug-susceptible) proliferation in erythrocyte-based infection assay; format: functional, organism-based; details: Plasmodium falciparum, 3D7
Plasmodium falciparum [2] = assay: NOVARTIS: Inhibition of Plasmodium falciparum W2 (drug-resistant) proliferation in erythrocyte-based infection assay; format: functional, organism-based; details: Plasmodium falciparum, W2; read-out: EC50
[3] = NOVARTIS: Cytotoxicity against human hepatocellular carcinoma cell line (Huh7); format: toxicity, cell-based, Huh-7; details: Huh7 cells (hepatocellular carcinoma cell line)

Compound	EC50 (Plasmodium falciparum [1]) [nM]	EC50 (Plasmodium falciparum [2]) [nM]	CC50 [3] [nM]
COc1ccc(CCNC2(Cc3ccccc3)CC(C)N(C)CC2C)cc1OC (configuration not stated)	620	268	42700
COc1ccc(OC)c(C2CC(=O)C3=C(C2)NC(=O)CC3c2ccc([N+](=O)[O-])cc2)c1 (configuration not stated)	262	229	72200
Cc1cc(Nc2ccc(C)c(Cl)c2)n2ncnc2n1	1400	> 927	> 10000
COc1cc(CN2CCC3(CC2)CC3C(=O)NCCc2ccccc2OC)ccc1O (configuration not stated)	2350	739	> 100000
CCCCN(CC)S(=O)(=O)c1cc(Br)cc2c1N(C(C)=O)CC2	1560	441	> 10000
OCCNc1nc(Nc2ccc(F)cc2)nc2ccccc12	223	749	> 100000
CCCN1CCC(N2C[C@@H](NC3CCN(CCc4ccccc4)CC3)C[C@H]2C(=O)NCCc2ccc3c(c2)OCO3)CC1	86.8	792	11100
COc1ccc(OC)c(C2C3=C(CC(C)(C)CC3=O)N(c3ccc(Cl)c(Cl)c3)C3=C2C(=O)CC(C)(C)C3)c1	430	546	> 100000
CCCCNC(=S)N(Cc1cccs1)Cc1cc2cc(C)ccc2[nH]c1=O	1020	295	> 10000
COc1ccc(OC)c(C2CC(=O)C3=C(C2)NC(=O)CC3c2ccc(OC)c(OC)c2)c1 (configuration not stated)	616	118	> 100000
CCC(c1nc2ccccc2c(=O)n1-c1cccc(Cl)c1)N(CCc1ccccc1)C(=O)c1ccc(F)cc1 (configuration not stated)	267	69	656
C=C[C@H]1CN2CC[C@H]1C[C@H]2[C@H](O)c1ccnc2ccc(OC)cc12 [QUININE]	993	1320	> 6250
CCOC(=O)C(=O)N1c2ccccc2-c2c(ssc2=S)C1(C)C	91.6	73.5	> 100000
CCSCCOC(=O)C1=C(C)NC2=C(C(=O)CCC2)C1c1ccc(OC)c(Br)c1 (configuration not stated)	371	360	> 100000
CCOC(=O)c1cc(-c2ccc(Cl)cc2Cl)[nH]c1N1CCN(c2ccc(OC)cc2)CC1	1370	> 1730	> 13400
CCS/C(Cl)=C(/NC(=O)c1ccccc1)[P+](c1ccccc1)(c1ccccc1)c1ccccc1	110	52	> 10000
Cn1ncnc2c(=O)n(C)c(=O)nc1-2	> 12500	481	199
CCOc1ccc(S(=O)(=O)c2cn(Cc3ccccc3C)c3ccc(OC)cc3c2=O)cc1	6270	3860	> 100000
COc1cccc(CN2CCN(C(=O)c3c(C)noc3C)[C@@H](C)C2)c1	> 936	> 1250	> 10000
N#Cc1c2c(c(N3CCN(C4CCCCC4)CC3)n3c1nc1ccccc13)CCC2	183	511	> 100000
OC(CN1CCN(CC(O)Cn2c3ccccc3c3cc(Br)ccc32)CC1)Cn1c2ccccc2c2ccccc21 (configuration not stated)	> 1260	576	> 10000
C=CCOC(=O)C1=C(C)N2CCSC2=C(C#N)C1c1ccco1 (configuration not stated)	1210	> 1250	> 10000
Cc1nc(-c2nc3c(s2)CN(C(=O)COc2ccc(Cl)cc2)CC3)cs1	> 10700	2920	> 100000
CC(=NNc1nc2ccccc2s1)c1ccc([N+](=O)[O-])cc1	> 965	> 848	> 10000
O=C1N(c2ccccc2)C[C@@H]2C[C@@H](c3ccc4nonc4c3)N3CCC[C@@]123	2370	2500	> 22100

Compound	EC50 (Plasmodium falciparum [1]) [nM]	EC50 (Plasmodium falciparum [2]) [nM]	CC50 [3] [nM]
Cc1ccn2c(NC(C)(C)CC(C)(C)C)c(-c3ccccc3OS(=O)(=O)CC34CCC(CC3=O)C4(C)C)nc2c1 (configuration not stated)	1360	147	> 10000
CC(C)c1ccc(C2N(c3ccccc3)C3(C(=O)c4ccccc4C3=O)C(c3ccc(C(C)C)cc3)C23C(=O)c2ccccc2C3=O)cc1 (configuration not stated)	802	792	> 10000
COc1ccc(CNC(=O)c2ccc3c(c2)N=C(/C=C/c2ccccc2)N(CCN2CCOCC2)C3)cc1	790	> 949	> 10000
Cc1ccccc1Cn1c(N2CCC(C(=O)NCc3ccccn3)CC2)nc2ccccc21	1940	2160	> 100000
O=C(COC(c1ccccc1)c1c(Cl)cncc1Cl)N1CCC(c2ccccn2)C1 (configuration not stated)	> 12500	6960	> 100000
COc1cc(CNNc2nc3cc(Cl)ccc3[nH]2)cc(OC)c1OC	308	541	> 10000
COc1ccc(C=C2SC(=N)N(c3ccccc3OC)C2=O)cc1	163	87.1	62900
C=CCn1c(=N)n(CC(O)c2ccc(Cl)c(Cl)c2)c2ccccc21 (configuration not stated)	140	58.3	14700
O=C(NNC(=O)c1cccc(F)c1)C(=O)N1CCOCC1	> 1250	> 1110	> 10000
N#Cc1ccccc1Cn1ccc(=NCc2ccccc2)cc1	1060	> 465	> 10000
CC[C@H]1CN2CC[C@H]1C[C@H]2[C@H](O)c1ccnc2ccccc12	183	696	> 7910
O=C1NN=C2C1=NC1(CCCCC1)Cc1ccccc12	325	376	3900
CCC(c1nc2ccccc2c(=O)n1-c1ccccc1OC)N(CCc1ccccc1)C(=O)c1ccc(F)cc1 (configuration not stated)	1020	180	> 7250
CCCCCCCC(O)(c1ccc(OCC)cc1)C(CN1CCCCC1)c1ccccc1 (configuration not stated)	1180	456	> 100000
CCC(C)N(CCC(=O)N1CCN(Cc2ccccc2)CC1)C(=O)Nc1cccc(Cl)c1Cl (configuration not stated)	> 1560	> 1060	> 8390
CCCN(CC(=O)Nc1cc(C(C)(C)C)nn1-c1cccc(C)c1C)C(=O)C1CCCCC1	1180	> 1390	9450
Fc1ccc2[nH]c3c(N4CCN(C(c5ccccc5)c5ccccc5)CC4)ncnc3c2c1	438	378	14800
O=c1[nH]n(CC2COC(c3ccccc3)O2)c(=O)c2ccccc12 (configuration not stated)	678	488	> 100000
Nc1c(C(=O)Nc2ccc(F)cc2)sc2nc3c(c(-c4cccs4)c12)CCCCC3	937	388	> 100000
Cc1c(CN2CCC(N3CCC(C(=O)NC4CC4)CC3)CC2)[nH]c2c(Cl)cccc12	345	1400	56500
CCCCCC[n+]1ccccc1C=Cc1ccc(N(C)C)cc1	118	238	1600
OC1(c2ccc(Br)cc2)CCN(C2CCN(Cc3ccccc3)CC2)CC1	183	433	9260
O=C(Nc1ccccc1)Nc1ccc(S(=O)(=O)Nc2ccc(Br)cc2)cc1	662	1160	> 10000
O=C(C1CC1)N1CCN=C1SCc1ccc(C(F)(F)F)cc1	6080	> 3700	> 100000
